Data from patent US5977326A, “Process for making morphine-6-glucuronide or substituted morphine-6-glucuronide” (priority 1991, dated 1999).

Tests used:
[1] = biological target: μ1 Receptor (opioid analgesia receptor) (Homo sapiens, UniProt P35372); type: binding
Excerpt: compound which displaces 50% of a labelled competitive ligand from […]

[2] = In vivo antinociceptive activity (A.U.C.), animal pain model; conditions: area under the time effect curve
Excerpt: *A.U.C. = area under the time effect curve.

[3] = versus morphine; R. Osborne et al., The Lancet, 1988, 828; cited from earlier work

Sequence of μ1 Receptor (opioid analgesia receptor) (P35372 whole entry): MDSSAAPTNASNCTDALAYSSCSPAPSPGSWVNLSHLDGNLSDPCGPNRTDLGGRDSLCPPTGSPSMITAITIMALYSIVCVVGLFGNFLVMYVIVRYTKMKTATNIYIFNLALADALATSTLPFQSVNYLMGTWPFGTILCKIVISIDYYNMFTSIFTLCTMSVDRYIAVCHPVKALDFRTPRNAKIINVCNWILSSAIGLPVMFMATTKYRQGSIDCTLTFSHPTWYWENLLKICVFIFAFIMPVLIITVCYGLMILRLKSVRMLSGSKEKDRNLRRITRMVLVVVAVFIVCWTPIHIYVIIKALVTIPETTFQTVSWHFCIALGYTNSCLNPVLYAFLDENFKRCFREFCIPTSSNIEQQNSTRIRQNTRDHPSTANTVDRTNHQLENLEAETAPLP

Compound	binding affinity to the receptor (μ1), in words [1]	In vivo antinociceptive (A.U.C.) ([2]; 1 mg)	In vivo antinociceptive (A.U.C.) ([2]; 2 mg)	In vivo antinociceptive (A.U.C.) ([2]; 4 mg)	In vivo antinociceptive (A.U.C.) ([2]; 8 mg)	analgesic power compared with morphine [3]
CN1CC[C@]23c4c5ccc(O)c4O[C@H]2[C@@H](O[C@@H]2O[C@H](C(=O)O)[C@@H](O)[C@H](O)[C@H]2O)CC[C@H]3[C@H]1C5 [Compound 6, 1-(7,8-dihydromorphin-6-yl)-β-D-glucopyranosiduronic acid]	greatest binding affinity to the relevant receptor (μ1)	277.4	720.4	753.3		
CN1CC[C@]23c4c5ccc(O)c4O[C@H]2[C@@H](O[C@@H]2O[C@H](C(=O)O)[C@@H](O)[C@H]2O)C=C[C@H]3[C@H]1C5 [Compound 4]				238.1	68.3	
CN1CC[C@]23c4c5ccc(O)c4O[C@H]2[C@@H](O[C@@H]2OC(C(=O)O)=C[C@H](O)[C@H]2O)C=C[C@H]3[C@H]1C5 [Compound 3]			205.0	168.5	175.5	
CN1CC[C@]23c4c5ccc(O)c4O[C@H]2[C@@H](O[C@@H]2O[C@H](C(=O)O)[C@@H](O)[C@H](O)[C@H]2O)C=C[C@H]3[C@H]1C5 [Compound 2, morphine-6-glucuronide]			209.6	618.1		more powerful analgesic than morphine itself
CN1CC[C@]23c4c5ccc(O)c4O[C@H]2[C@@H](O)C=C[C@H]3[C@H]1C5 [Compound 1, morphine]		197.3	241.4	738.3		
O=C(O)[C@H]1O[C@@H](O[C@H]2C=C[C@H]3[C@H]4Cc5ccc(O)c6c5[C@@]3(CCN4)[C@H]2O6)[C@H](O)[C@@H](O)[C@@H]1O [Compound 5]			65.6	564.8	837.9	
